# “Also recorded” adds a separate entry of the source. Read-outs that look alike come from different tables or passages of the source.
# What was measured:
# [1] = Max. solubility (Table 1); format: physicochemical
# [2] = test system: activity-regulated Gln/MeAIB transport (SNAT activity) in hippocampal neurons; assay: Activity-regulated (spontaneous, 4-AP- or K+-stimulated) [14C]-MeAIB transport in primary hippocampal neurons; format: cell-based, rat; set-up: block of transport activity: dose or concentration left out as unconfirmed; conditions: for reduction of activity-regulated Gln/MeAIB transport after preconditioning: brief exposure (KCl 45 mM, Glu or NMDA), transport measured after 24 hr; for IC50 / inhibition at 10 µM: Rattus norvegicus, Hippocampal neuron; for inhibition at 10 µM: read-out: block / inhibition of transport activity; for Active (annotation beside the compound name: active vs inactive derivatives): Table 1: SKA-41, and active and inactive derivatives; for potency to inhibit activity-regulated MeAIB transport relative to a comparator, in words: spontaneous and 4-AP stimulated transport
# [3] = 4-AP-stimulated (depolarization) [14C]-MeAIB uptake, DIV16, n in brackets, read-out: SNAT Activity IC50, 4-AP
# [4] = spontaneous [14C]-MeAIB uptake, DIV 19, n in brackets, read-out: SNAT Activity IC50, Spont
# [5] = hippocampal neurons in vitro, 14C-MeAIB 20 μM, read-out: IC50 to inhibit activity-regulated Gln/MeAIB transport
structure (smiles),measurement,setting,value
Cc1nc(-c2ccccc2)cs1 [SKA-88],solubility,[1],100 µM
"CN[C@H](CC(=O)O)C(=O)O [NMDA, N-methyl-D-aspartate, reference compound]",reduction of activity-regulated Gln/MeAIB transport after preconditioning,[2],~50%
Nc1nc(-c2ccsc2)cs1 [SKA-94],"inhibition of spontaneous activity-regulated 14C-MeAIB transport, in words","[2]; screens, 10 μM, GABA 2 mM",inactive
same,solubility,[1],100 µM
"Clc1ccc(Nc2nc(-c3cccc4ccccc34)cs2)cc1Cl [SKA-257, N-(3,4-Dichlorophenyl)-4-(naphthalen-1-yl)thiazol-2-amine]",solubility,[1],10 µM
same,melting point,,243 to 244 °C
[Cl-].[K+] [KCl],reduction of activity-regulated Gln/MeAIB transport after preconditioning,[2],~50%
Nc1nc(-c2ccc3ccccc3c2)c(F)s1,fold difference 4-AP IC50 over Spont IC50,[2],1.3 x
same,IC50,[2]; [3],17.9 µM
same,IC50,[2]; [4],13.3 µM
"c1ccc(-c2csc(Nc3ccccn3)n2)cc1 [SKA-265, 4-Phenyl-N-(pyridin-2-yl)thiazol-2-amine]",solubility,[1],50 µM
Nc1nc(-c2ccc(Cl)cc2)cs1 [SKA-80],solubility,[1],50 µM
Nc1nc(-c2ccccc2)cs1 [SKA-78],solubility,[1],100 µM
Cc1nc(-c2ccccc2)c(C)s1 [SKA-89],"inhibition of spontaneous activity-regulated 14C-MeAIB transport, in words","[2]; screens, 10 μM, GABA 2 mM",inactive
same,solubility,[1],100 µM
"Nc1nnc(-c2cccc(Cl)c2Cl)c(N)n1 [lamotrigine, reference compound]",IC50,[2]; [5],20 µM
Nc1nc(-c2ccc(-c3ccc(-c4csc(N)n4)cc3)cc2)cs1 [SKA-255],solubility,[1],10 µM
"Cc1ccc(-c2csc(Nc3cccc(C(F)(F)F)c3)n2)cc1 [SKA-260, 4-(p-Tolyl)-N-(3-(trifluoromethyl)phenyl)thiazol-2-amine]",solubility,[1],10 µM
same,melting point,,108 °C
"Cc1ccc(-c2csc(N)n2)c2ccccc12 [SKA-190, 4-(4-Methylnaphthalen-1-yl)thiazol-2-amine]",block of transport activity,[2],90%
same,inhibition at 10 µM,[2],90%
same,Active (annotation beside the compound name: active vs inactive derivatives),[2],SKA-190 Active
same,"inhibition of spontaneous activity-regulated 14C-MeAIB transport, in words","[2]; screens, 10 μM, GABA 2 mM",blocked spontaneous transport activity; also recorded: inhibited spontaneous transport activity
same,solubility,[1],50 µM
"Nc1nc(-c2ccc3ccccc3c2)cs1 [SKA-76, 4-(Naphthalen-2-yl)thiazol-2-amine]",inhibition at 10 µM,[2],> 50%
same,"inhibition of spontaneous activity-regulated 14C-MeAIB transport, in words","[2]; screens, 10 μM, GABA 2 mM",inhibited spontaneous transport activity
same,"potency to inhibit activity-regulated MeAIB transport relative to a comparator, in words",[2],much less potent than riluzole
same,solubility,[1],25 µM
Nc1nc(-c2ccc(OC(F)(F)F)cc2)c(Cl)s1,fold difference 4-AP IC50 over Spont IC50,[2],1.6 x
same,IC50,[2]; [3],7.4 µM
same,IC50,[2]; [4],4.6 µM
"FC(F)(F)c1ccc(Nc2nc(-c3ccccc3)cs2)cc1 [SKA-268, 4-Phenyl-N-(4-(trifluoromethyl)phenyl)thiazol-2-amine]",solubility,[1],10 µM
same,melting point,,153 °C
"Cc1sc(N)nc1-c1ccc(C)c2ccccc12 [SKA-247, 5-Methyl-4-(4-methylnaphthalen-1-yl)thiazol-2-amine]",block of transport activity,[2],90%
same,inhibition at 10 µM,[2],90%
same,IC50,[2]; [5],~2 µM
same,Active (annotation beside the compound name: active vs inactive derivatives),[2],SKA-247 Active
same,"inhibition of spontaneous activity-regulated 14C-MeAIB transport, in words","[2]; screens, 10 μM, GABA 2 mM",blocked spontaneous transport activity; also recorded: inhibited spontaneous transport activity
same,solubility,[1],50 µM
"Nc1ccncc1 [4-AP, 4-aminopyridine, reference compound]",maximal stimulation of high-affinity 14C-MeAIB transport,[2]; 200 μM 4-AP,~2 ×
Nc1nc(-c2ccc(-c3ccccc3)cc2)cs1 [SKA-232],solubility,[1],50 µM
Cc1ccc(-c2csc(N)n2)c2ccccc12 [drawing 63],fold difference 4-AP IC50 over Spont IC50,[2],4.5 x
same,IC50,[2]; [3],11.7 µM
same,IC50,[2]; [4],2.6 µM
"CCCCCCCCCCCCCC(=O)O[C@@H]1[C@@H](C)[C@@]2(O)[C@@H](C=C(CO)C[C@]3(O)C(=O)C(C)=C[C@@H]23)[C@@H]2C(C)(C)[C@]12OC(C)=O [PMA, phorbal myristate acetate, reference compound]",stimulation of 14C-MeAIB transport,[2]; PMA 10 min prior to KCl (60 mM) depolarization,two-fold
Nc1nc(-c2cccc3ccccc23)c(Cl)s1 [drawing 70],fold difference 4-AP IC50 over Spont IC50,[2],4.3 x
same,IC50,[2]; [3],5.2 µM
same,IC50,[2]; [4],1.2 µM
"Cc1ccc(-c2csc(Nc3ccc(C(F)(F)F)cc3)n2)cc1 [SKA-269, 4-(p-Tolyl)-N-(4-(trifluoromethyl)phenyl)thiazol-2-amine]",solubility,[1],10 µM
same,melting point,,155 °C
"c1ccc(Nc2nc(-c3cccc4ccccc34)cs2)nc1 [SKA-258, 4-(Naphthalen-1-yl)-N-(pyridin-2-yl)thiazol-2-amine]",solubility,[1],10 µM
same,melting point,,225 °C
"N[C@@H](CCC(=O)O)C(=O)O [Glu, glutamate]",reduction of activity-regulated Gln/MeAIB transport after preconditioning,[2],~50%
"CN[C@@H]1C[C@H]2O[C@@](C)([C@@H]1OC)n1c3ccccc3c3c4c(c5c6ccccc6n2c5c31)C(=O)NC4 [staurosporine, reference compound]",effect on PMA stimulation of 14C-MeAIB transport,[2]; staurosporine 200 nM,abolished
"Nc1nc(-c2ccc3ccccc3c2)c(Cl)s1 [SKA-379, 5-Chloro-4-(naphthalen-2-yl)thiazol-2-amine]","potency to inhibit activity-regulated MeAIB transport relative to a comparator, in words",[2],"as active as SKA-219 and SKA-220, respectively"
"Nc1nc(-c2ccc(-c3csc(N)n3)cc2)cs1 [SKA-230, 4,4′-(1,4-Phenylene)bis(thiazol-2-amine)]",solubility,[1],50 µM
same,melting point,,350 °C
Nc1nc(-c2ccc(F)cc2)cs1 [SKA-77],solubility,[1],100 µM
"Nc1nc(-c2ccc3ccccc3c2)c(Br)s1 [SKA-220, 5-Bromo-4-(naphthalen-2-yl)thiazol-2-amine]",inhibition at 10 µM,[2],90%
same,Active (annotation beside the compound name: active vs inactive derivatives),[2],SKA-220 Active
same,"inhibition of spontaneous activity-regulated 14C-MeAIB transport, in words","[2]; screens, 10 μM, GABA 2 mM",blocked spontaneous transport activity; also recorded: inhibited spontaneous transport activity
same,"potency to inhibit activity-regulated MeAIB transport relative to a comparator, in words",[2],as potent as riluzole
same,solubility,[1],25 µM
same,melting point,,140 to 141 °C
Cc1ccc(-c2nc(N)sc2Cl)c2ccccc12,fold difference 4-AP IC50 over Spont IC50,[2],5.2 x
same,IC50,[2]; [3],7.4 µM
same,IC50,[2]; [4],1.4 µM
"c1ccc(Nc2nc(-c3ccccc3)cs2)cc1 [SKA-292, N,4-Diphenylthiazol-2-amine]",solubility,[1],25 µM
same,melting point,,135 to 137 °C
"COc1ccc(CCN(C)CCCC(C#N)(c2ccc(OC)c(OC)c2)C(C)C)cc1OC (stereo not drawn) [verapamil, reference compound]","inhibition of spontaneous activity-regulated 14C-MeAIB transport, in words",[2],blocked
"Cc1ccc2cc(-c3csc(N)n3)ccc2c1 [SKA-198, 4-(6-Methylnaphthalen-2-yl)thiazol-2-amine]",inhibition at 10 µM,[2],> 50%
same,"inhibition of spontaneous activity-regulated 14C-MeAIB transport, in words","[2]; screens, 10 μM, GABA 2 mM",inhibited spontaneous transport activity
same,solubility,[1],50 µM
same,melting point,,178 to 179 °C
Cc1ccc(-c2nc(N)sc2Br)c2ccccc12,fold difference 4-AP IC50 over Spont IC50,[2],4.4 x
same,IC50,[2]; [3],4.4 µM
same,IC50,[2]; [4],1 µM
Nc1nc(-c2ccc3ccccc3c2)c(Cl)s1 [drawing 71],fold difference 4-AP IC50 over Spont IC50,[2],1.5 x
same,IC50,[2]; [3],9.3 µM
same,IC50,[2]; [4],6.2 µM
Cc1sc(N)nc1-c1ccccc1 [SKA-82],solubility,[1],100 µM
Cc1ccc(-c2csc(N)n2)cc1 [SKA-79],solubility,[1],100 µM
"Nc1nc(-c2cccc3ccccc23)cs1 [SKA-75, 4-(Naphthalen-1-yl)thiazol-2-amine]",inhibition at 10 µM,[2],> 50%
same,"inhibition of spontaneous activity-regulated 14C-MeAIB transport, in words","[2]; screens, 10 μM, GABA 2 mM",inhibited spontaneous transport activity
same,"potency to inhibit activity-regulated MeAIB transport relative to a comparator, in words",[2],much less potent than riluzole
same,solubility,[1],25 µM
"O=C1NC(=O)C(c2ccccc2)(c2ccccc2)N1 [phenytoin, reference compound]",potency of riluzole relative to phenytoin to inhibit activity-regulated Gln/MeAIB transport,[2],50 ×
same,IC50,[2]; [5],57 µM
"FC(F)(F)c1cccc(Nc2nc(-c3cccc4ccccc34)cs2)c1 [SKA-251, 4-(Naphthalen-1-yl)-N-(3-(trifluoromethyl)phenyl)thiazol-2-amine]",solubility,[1],10 µM
same,melting point,,135 °C
"Cc1ccc2cccc(-c3csc(N)n3)c2c1 [SKA-193, 4-(7-Methylnaphthalen-1-yl)thiazol-2-amine]",block of transport activity,[2],90%
same,inhibition at 10 µM,[2],90%
same,Active (annotation beside the compound name: active vs inactive derivatives),[2],SKA-193 Active
same,"inhibition of spontaneous activity-regulated 14C-MeAIB transport, in words","[2]; screens, 10 μM, GABA 2 mM",blocked spontaneous transport activity; also recorded: inhibited spontaneous transport activity
same,solubility,[1],50 µM
same,melting point,,154 to 156 °C

# Source: patent US11974988B2, “Neuroprotective compositions and methods of using the same” (The Board of Supervisors of Louisiana State Univer …, priority 2018, dated 2024)
